# Measured values reported in ChEMBL document CHEMBL1158995, “A novel perlactone from the Caribbean sponge Plakortis angulospiculatus” (J Nat Prod, 1991).
# Calls of active or inactive are those of the source. The rule behind the calls is not given here.
# System: Candida albicans
# Assay: Antimicrobial activity against Candida albicans ATCC 32354
# Type: functional, organism-based
smiles,measurement,value
CC1=C(O)C(C)(CCCCCC(C)CCCCc2ccc(O)cc2)OOC1=O (stereo unspecified),Activity,inactive
